Assay results taken from PMC4455150, “A RP-UFLC Assay for Protein Tyrosine Phosphatases: Focus on Protein Tyrosine Phosphatase Non-Receptor Type 2 (PTPN2)” (Scientific Reports, 2015).
One block for each compound: values may come before it.

What was measured:
Format in all cases: biochemical
[1] = target: T1, PTPN2 (Homo sapiens, UniProt P17706); test: RP-UFLC phosphatase assay with FAM-pStat1 peptide; time- and concentration-dependent inactivation kinetics (ki […] ^-1 min^-1)
T1 construct: full length human PTPN2 (TC45 variant), 6xHis-tagged
T1 sequence (P17706 1-381 limits assumed): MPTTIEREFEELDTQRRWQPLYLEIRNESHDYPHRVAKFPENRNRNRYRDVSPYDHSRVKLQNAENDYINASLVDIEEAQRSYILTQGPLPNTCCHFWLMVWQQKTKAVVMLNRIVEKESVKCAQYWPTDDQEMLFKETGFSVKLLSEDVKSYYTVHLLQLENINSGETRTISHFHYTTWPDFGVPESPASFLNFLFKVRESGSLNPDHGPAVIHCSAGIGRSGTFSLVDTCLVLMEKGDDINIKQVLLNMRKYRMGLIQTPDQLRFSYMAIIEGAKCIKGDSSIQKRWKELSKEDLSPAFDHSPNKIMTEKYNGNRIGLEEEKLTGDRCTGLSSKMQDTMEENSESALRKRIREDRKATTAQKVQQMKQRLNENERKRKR

[2] = target: T1, PTPN2; test: RP-UFLC phosphatase assay with FAM-pStat1 peptide
[3] = target: T1, PTPN2; test: dephosphorylation of chromogenic substrate by purified enzyme

IC50 [1]: 180 µM
SMILES: C=CS(=O)(=O)Oc1ccccc1 [PVSN, phenyl vinyl sulfonate]

SMILES: [O]=[V]([OH])([OH])[OH] [orthovanadate]
IC50 [2]: ~1 µM

SMILES: O=[N+]([O-])c1ccc(OP(=O)(O)O)cc1 [pNPP, p-nitrophenyl phosphate]
dephosphorylation of chromogenic substrate by purified enzyme [3]: Purified PTPN2 was functional as demonstrated by the dephosphorylation of the non-proteinaceous and non-specific chromogenic substrate p-nitrophenyl phosphate (pNPP)
